10 compounds from patent US20220402950A1, “SUBSTITUTED BENZIMIDAZOLES AS PAD4 INHIBITORS” (BRISTOL-MYERS SQUIBB COMPANY, priority 2018, published 2022) can be followed below.

The assay has as its target human PAD4 (hPAD4) (Homo sapiens, UniProt Q9UM07). Description: RFMS Human PAD4 Functional Assay. The format is biochemical. The settings on record: hPAD4 RFMS IC50, human PAD4, rapid-fire mass spectrum (RFMS) assay; 5 nM hPAD4, 250 μM BAEE. In a few lines: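 RapidFire ESI-MS quantification, normalised to a modified-citrulline internal standard, after phenyl glyoxal (final 4 mM) derivatisation of the TCA-quenched reaction. The enzyme (10 nM) sat 30 min with compound (up to 50 μM final) before 500 μM BAEE (as added) started a 90 min, 37 °C reaction. Buffer: HEPES pH 7.5, 50 μM calcium, 5 μM TPEN.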

Chain of human PAD4 (hPAD4) (Q9UM07 whole entry): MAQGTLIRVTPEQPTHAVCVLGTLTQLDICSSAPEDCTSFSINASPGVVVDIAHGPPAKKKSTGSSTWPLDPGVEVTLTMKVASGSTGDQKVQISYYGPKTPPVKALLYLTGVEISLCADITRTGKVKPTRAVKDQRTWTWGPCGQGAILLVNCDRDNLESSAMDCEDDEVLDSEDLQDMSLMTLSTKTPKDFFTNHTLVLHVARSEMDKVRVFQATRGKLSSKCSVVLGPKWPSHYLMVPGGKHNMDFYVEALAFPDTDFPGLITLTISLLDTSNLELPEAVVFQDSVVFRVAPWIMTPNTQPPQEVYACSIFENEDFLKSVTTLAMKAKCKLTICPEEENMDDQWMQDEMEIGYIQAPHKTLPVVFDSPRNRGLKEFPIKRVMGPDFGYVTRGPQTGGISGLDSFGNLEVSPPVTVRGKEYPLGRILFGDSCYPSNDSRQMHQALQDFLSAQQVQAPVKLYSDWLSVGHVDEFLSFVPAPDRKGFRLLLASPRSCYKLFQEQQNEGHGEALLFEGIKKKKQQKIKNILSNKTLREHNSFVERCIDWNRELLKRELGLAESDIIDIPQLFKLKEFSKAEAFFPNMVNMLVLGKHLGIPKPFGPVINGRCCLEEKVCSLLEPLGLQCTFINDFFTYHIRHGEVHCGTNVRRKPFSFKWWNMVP

Usually IC50 stands for the concentration that inhibits the measured activity by half. `COC(=O)N1CC(c2cccc3cc(-c4nc5cc(C(=O)N6C[C@H]7CC[C@@H]6[C@@H]7N)cc(OC)c5n4Cc4cnn(C)c4)n(CC4CC4)c23)C1` [Example 213, methyl 3-(2-(5-((1R,4R,7R)-7-amino-2-azabicyclo[2.2.1]heptane-2-carbonyl)-7-methoxy-1-((1-methyl-1H-pyrazol-4-yl)methyl)-1H-benzo[d]imidazol-2-yl)-1-(cyclopropylmethyl)-1H-indol-7-yl)azetidine-1-carboxylate]: 21 nM corresponded to half-maximal inhibition (IC50).
On to `COc1cc(C(=O)N2C[C@H]3CC[C@@H]2[C@@H]3N)cc2nc(-c3cc4cccc(C5CC(C(N)=O)C5)c4n3CC3CC3)n(C)c12` (single isomer, unassigned) [Example 46], for which the IC50 turned out to be 13 nM.
On to `COc1cc(C(=O)N2C[C@H]3CC[C@@H]2[C@@H]3N)cc2nc(-c3cc4cccc(C5CCN(C(=O)NC(C)C)CC5)c4n3CC3CC3)n(C)c12` [Example 252, 4-(2-(5-((1R,4R,7R)-7-amino-2-azabicyclo[2.2.1]heptane-2-carbonyl)-7-methoxy-1-methyl-1H-benzo[d]imidazol-2-yl)-1-(cyclopropylmethyl)-1H-indol-7-yl)-N-isopropylpiperidine-1-carboxamide], for which the half-maximal inhibitory concentration (IC50) was found to be 58 nM.
The value for `COc1cc(C(=O)N2C[C@H]3CC[C@@H]2[C@@H]3N)cc2nc(-c3cc4cccc(-c5cnn(CCO)c5)c4n3CC3CC3)n(C)c12` [Example 141, ((R,4R,7R)-7-amino-2-azabicyclo[2.2.1]heptan-2-yl)(2-(1-(cyclopropylmethyl)-7-(1-(2-hydroxyethyl)-1H-pyrazol-4-yl)-1H-indol-2-yl)-7-methoxy-1-methyl-1H-benzo[d]imidazol-5-yl)methanone] was 101 nM.
The value for `COc1cc(C(=O)N2C[C@H]3CC[C@@H]2[C@@H]3N)cc2nc(-c3cc4cccc(Nc5c(C)nn(C)c5C)c4n3CC3CC3(Cl)Cl)n(C)c12` (stereo partly drawn) [Example 176, ((1R,4R,7R)-7-amino-2-azabicyclo[2.2.1]heptan-2-yl)(2-(1-((2,2-dichlorocyclopropyl)meth-yl)-7-((1,3,5-trimethyl-1H-pyrazol-4-yl)amino)-1H-indol-2-yl)-7-methoxy-1-methyl-1H-benzo[d]imidazol-5-yl)methanone] was 76 nM; that for `COc1cc(C(=O)N2C[C@H]3CC[C@@H]2[C@@H]3N)cc2nc(-c3cc4cccc(C5CC(C(=O)O)C5)c4n3CC3CC3)n(C)c12` (single isomer, unassigned) [Example 56] was 170 nM; that for `COc1cc(C(=O)N2C[C@H]3CC[C@@H]2[C@@H]3N)cc2nc(-c3cc4cccc(CCC(C)(C)O)c4n3CC3CC3)n(C)c12` [Example 21, 4-(2-{5-[(1R,4R,7R)-7-amino-2-azabicyclo[2.2.1]heptane-2-carbonyl]-7-methoxy-1-methyl-1H-1,3-benzodiazol-2-yl}-1-(cyclopropylmethyl)-1H-indol-7-yl)-2-methylbutan-2-ol] was 86 nM.
To `COc1cc(C(=O)N2C[C@H]3CC[C@@H]2[C@@H]3N)cc2nc(-c3cc4cccc(-c5cnn(C[C@@H](C)O)c5)c4n3CC3CC3)n(C)c12` [Example 138, ((1R,4R,7R)-7-amino-2-azabicyclo[2.2.1]heptan-2-yl)(2-(1-(cyclopropylmethyl)-7-(1-((R)-2-hydroxypropyl)-1H-pyrazol-4-yl)-1H-indol-2-yl)-7-methoxy-1-methyl-1H-benzo[d]imidazol-5-yl)methanone] belongs 147 nM; to `COc1cc(C(=O)N2C[C@H]3CC[C@@H]2[C@@H]3N)cc2nc(-c3cc4cccc(C5CC(C(=O)N6CC(F)C6)C5)c4n3CC3CC3)n(C)c12` (single isomer, unassigned; isomer 2) [Example 201], 57 nM; to `CCOCC(=O)N1CCC(c2cccc3cc(-c4nc5cc(C(=O)N6C[C@H]7CC[C@@H]6[C@@H]7N)cc(OC)c5n4C)n(CC4CC4)c23)CC1` [Example 234, 1-(4-(2-(5-((1R,4R,7R)-7-amino-2-azabicyclo[2.2.1]heptane-2-carbonyl)-7-methoxy-1-methyl-1H-benzo[d]imidazol-2-yl)-1-(cyclopropylmethyl)-1H-indol-7-yl)piperidin-1-yl)-2-ethoxyethan-1-one], 49 nM.
